Assays:
[1] = test system: L428 Hodgkins lymphoma cells; assay: FACS analysis of apoptosis and cell cycle, L428 cells; format: cell-based, human; settings: 48 hours
[2] = test system: control B lymphoid (Daudi) cell line; assay: FACS analysis of control B lymphoid cells; format: cell-based; settings: for apoptotic (sub-G1) cells: 48 hours, untreated basal apoptosis approximately 50%; for effect on control B cells: rimcazole 0.1 mM, 0.01 mM, 0.001 mM (FIG. 11c), haloperidol not shown
[3] = test system: human colon carcinoma (HT29) cells; assay: FACS analysis of apoptosis, HT29 cells; format: cell-based
[4] = test system: p53 null lung carcinoma (H1299) cells; assay: FACS analysis of apoptosis and cell cycle, H1299 cells; format: cell-based, human
Source text: FIG. 8 illustrates a representative FACS (fluorescence activated cell sorting) profile obtained from the experiment indicated; horizontal axis denote DNA content of the cells and the vertical axis the numbers of cells that have a particular DNA content. Apoptotic cells have a subnormal DNA content and are represented as a peak to the extreme left of the profile (sub-G1); viable cells are represented in G1 and G2/M peaks which correspond to these phases of the cell cycle. Where percentages are provided, these indicate cells in sub-G1, G1 or G2/M phases, as indicated, as a percent of the total cell population. In all cases, the existence of apoptotic cells was confirmed by additional means such as microscopic examination.
Bar charts show quantitative data obtained from representative FACS analyses for the experiments indicated. In all cases, numbers of cells that are apoptotic (sub-G1), as a percentage of the total cell population, are depicted by diagonal-hatched bars; numbers of cells that are viable and in G1 (G1/S) phase of the cell cycle, as a percentage of the total cell population, are depicted by stippled bars; viable cells in G2/M phase of the cell cycle are depicted by horizontal-hatched bars.
The experiments described in the examples were performed using methods well-known to those skilled in the art and documented in standard text books in the field (e.g. Chapters 4 and 5, Methods in Cell Biology Vol 46 editors L. M. Schwartz and B. A. Osborne, Academic Press Ltd, London 1995 provides inter alia details on detection of apoptosis and cell division cycle arrest by FACS).

[5] = test system: Saos-2::p53^teti cells; assay: FACS analysis of osteosarcoma cells with tetracycline-inducible p53; format: cell-based, human
[6] = test system: 293 cells (transformed kidney epithelial cells); assay: FACS (propidium iodide) analysis of apoptosis, 293 cells; format: cell-based, human; parameters: cell population induced to apoptose: dose or concentration left out as unconfirmed
[7] = mouse, in vivo
Procedure: All drugs were dissolved in sterile water for injection and frozen as ˜2 ml aliquots, except haloperidol which was stored as a powder at RT and made up fresh each day in 45% cyclodextrin. The mice were housed in filter boxes in Maximiser laminar flow cabinets and fed sterilized food and water. All procedures were carried out in class 1 laminar flow hoods using sterile equipment and reagents. The mice were dosed daily by an intraperitoneal route (combined therapies dosed simultaneously) and body weights and tumour measurements recorded at frequent intervals.

[8] = test system: MDA MB 468 human breast carcinoma xenografts; assay: Human breast carcinoma xenograft growth in athymic mice; format: in vivo; settings: 10 mg/kg/day intraperitoneal, day 45; all or selected tumours
[9] = test system: MCF 7::p53^val135 cells; assay: Phase micrographs of MCF 7 cells with temperature sensitive p53; format: cell-based, human
[10] = test system: MDA MB 231 cells; assay: FACS analysis of hormone unresponsive breast carcinoma cells; format: cell-based, human; settings: rimcazole 0.001 mM, 48 hours
[11] = test system: MCF7 cells; assay: FACS analysis of hormone responsive breast carcinoma cells; format: cell-based, human; settings: rimcazole 0.001 mM, 48 hours
[12] = test system: wild-type Saos-2 cells; assay: Wild-type Saos-2 cells lacking p53; format: cell-based, human; settings: low dose rimcazole combined with doxycycline
[13] = test system: MDA MB 468 cells; assay: FACS analysis of hormone insensitive breast cancer cells; format: cell-based, human

COc1ccc2c(c1OC)C(=O)O[C@@H]2[C@H]1c2c(cc3c(c2OC)OCO3)CCN1C (relative stereo) [noscapine, (S-(R*,S*))-6,7-Dimethoxy-3-(5,6,7,8-tetrahydro-4-methoxy-6-methyl-1,3-dioxolo(4,5-g)isoquinolin-5-yl)-1(3H)-Isobenzofuranone]
apoptosis induction ([1]; 10^−4M): majority of the cell population | apoptosis induction ([1]; 10^−5M): substantial amount of apoptosis | mitotic arrest (G2/M cells) ([1]; 10^−5M): increase in percentage of G2/M cells | apoptotic (sub-G1) cells [2]: approximately 50% | apoptosis, % of cell population ([3]; 10^−4M on its own): 67% | apoptosis ([3]; 10^−4M with TNF added): additional increase | apoptotic cells, % of total cell population ([4]; 10^−4M combined with TNF 5 ng/ml): 74% | apoptotic cells ([4]; 10^−4M, 48 hours, alone): 39%

C[C@H]1c2cccc(O)c2C(=O)C2=C(O)[C@]3(O)C(=O)C(C(N)=O)=C(O)[C@@H](N(C)C)[C@@H]3[C@@H](O)[C@@H]21 [doxycycline]
cells undergoing apoptosis, % of total population ([5]; low dose doxycycline alone): 4%

O=C(CCCN1CCC(O)(c2ccc(Cl)cc2)CC1)c1ccc(F)cc1 [haloperidol, 4(4-(4-chlorophenyl)-4-hydroxy-1-piperidinyl)-1-(4-fluorophenyl)-1-Butanone]
apoptotic cells ([6]; haloperidol 10^−5 M combined with transfected RelA(p65)): 47% | apoptotic cells ([6]; haloperidol 10^−5 M on its own): 2-3% | sub-G1 apoptotic cells, % of total cell population ([6]; haloperidol without IκB (FIG. 9c)): 58% | sub-G1 apoptotic cells, % of total cell population ([6]; non-degradable mutant IκB plasmid transfected prior to haloperidol): 5% | ill effects / toxicity in mice [7]: transient sleepiness | effect on control B cells [2]: unaffected | tumour growth inhibition (tumour weights at excision) [8]: growth inhibition | apoptosis ([4]; haloperidol 10^−5M alone): 4% | apoptosis ([4]; haloperidol 10^−5M combined with TNF): 59%

Oc1ccc2c3c1O[C@H]1c4[nH]c5ccccc5c4C[C@@]4(O)[C@@H](C2)N(CC2CC2)CC[C@]314 [naltrindole]
apoptosis induction ([1]; 10^−4M): majority of the cell population | apoptosis induction ([1]; 10^−5M): substantial amount of apoptosis | mitotic arrest (G2/M cells) ([1]; 10^−5M): increase in percentage of G2/M cells | induction of death [6]: fails to induce death | induction of sub-G1 (apoptotic) cells [6]: marked induction | apoptotic (sub-G1) cells [2]: approximately 50% | G2/M cell cycle arrest [4]: appearance of a G2/M peak | induction of apoptosis [4]: marked induction of apoptosis

C[C@@H]1CN(CCCn2c3ccccc3c3ccccc32)C[C@H](C)N1 [rimcazole, cis-9-[3-(3,5-Dimethyl-1-piperazinyl)propyl]-9H-carbazole]
apoptosis (phase micrographs) ([9]; 32 degC (p53 wild-type conformation), e.g. 0.001 mM): marked induction of apoptosis | apoptosis (phase micrographs) ([9]; 37 degC): largely unaffected | apoptosis (phase micrographs) ([9]; 37 degC (p53 largely inactive), 0.1 mM): Apoptosis is induced | cell population induced to apoptose ([6]; rimcazole alone): 1% | cell population induced to apoptose ([6]; rimcazole in combination with transiently overexpressed p53): 75% | apoptotic cells, % of total cell population [10]: 25% | proportion of G2/M cells [10]: 62% | apoptosis [11]: 6% | proportion of G2/M cells [11]: 32% | effect of combination on apoptosis [12]: no effect | cell population induced to apoptose ([5]; rimcazole 100 nM alone): approximately 5% | apoptotic cells ([5]; rimcazole 100 nM combined with doxycycline 0.02 μg/ml): 85% | effect on control B cells [2]: unaffected | apoptotic cells ([13]; 0.001 mM, approximately 48 hours): 16% | apoptosis, % of cell population ([13]; 0.01 millimoles per liter, approximately 48 hours): 79% | cells induced to apoptose ([13]; rimcazole 0.001 mM combined with cis-U50488 0.1 mM): 83% | tumour growth inhibition (tumour weights at excision) [8]: significant tumour growth inhibition | apoptosis ([4]; rimcazole 0.01 mM in combination with trans-U50488 0.1 mM): 67% | apoptosis, % of cells ([4]; sublethal dose alone): 4% | apoptosis, % of cells ([4]; sublethal dose of rimcazole with sublethal dose of TNF): 61%

B1: proenkephalin: proenkephalin destined for the secretory pathway, overexpressed from transiently transfected plasmid DNA (protein, UniProt P01210 1-267, looked up)
chain: MARFLTLCTWLLLLGPGLLATVRAECSQDCATCSYRLVRPADINFLACVMECEGKLPSLKIWETCKELLQLSKPELPQDGTSTLRENSKPEESHLLAKRYGGFMKRYGGFMKKMDELYPMEPEEEANGSEILAKRYGGFMKKDAEEDDSLANSSDLLKELLETGDNRERSHHQDGSDNEEEVSKRYGGFMRGLKRSPQLEDEAKELQKRYGGFMRRVGRPEWWMDYQKRYGGFLKRFAEALPSDEEGESYSKEVPEMEKRYGGFMRF
modifications: full-length
notes: proenkephalin destined for the secretory pathway, overexpressed from transiently transfected plasmid DNA
induction of apoptosis ([6]; alone, 48 hours, TNF 5 ng/ml, proenkephalin 5 μg plasmid DNA (secretory) transfected): no induction of apoptosis | reduction in percentage of sub-G1 (apoptotic) cells ([6]; proenkephalin + TNF, co-transfection of 5 μg IκB plasmid): greater than 50% | percentage of apoptotic (sub-G1) cells ([6]; proenkephalin overexpressed in combination with TNF 5 ng/ml): marked increase
